In patent US20220259212A1, “INHIBITORS OF INDOLEAMINE 2,3-DIOXYGENASE AND/OR TRYPTOPHAN 2,3-DIOXYGENASE” (Idorsia Pharmaceuticals Ltd, priority 2019, published 2022):

Key:
[1] = biological target: T1, Recombinant human TDO comprising amino acids 19-407 (Homo sapiens, UniProt P48775); assay: TDO2 enzymatic assay (NFK quantified by LCMS); format: biochemical; conditions: 15 nM enzyme, 200 μM L-tryptophan, 30 min pre-incubation, pH7; mean if measured multiple times; read-out: hTDO activity (IC50 in nM)
T1 construct: human TDO comprising amino acids 19-407; hexahistidine (N); made in house; host or cells: E. coli
T1 sequence (P48775 19-406 limits assumed): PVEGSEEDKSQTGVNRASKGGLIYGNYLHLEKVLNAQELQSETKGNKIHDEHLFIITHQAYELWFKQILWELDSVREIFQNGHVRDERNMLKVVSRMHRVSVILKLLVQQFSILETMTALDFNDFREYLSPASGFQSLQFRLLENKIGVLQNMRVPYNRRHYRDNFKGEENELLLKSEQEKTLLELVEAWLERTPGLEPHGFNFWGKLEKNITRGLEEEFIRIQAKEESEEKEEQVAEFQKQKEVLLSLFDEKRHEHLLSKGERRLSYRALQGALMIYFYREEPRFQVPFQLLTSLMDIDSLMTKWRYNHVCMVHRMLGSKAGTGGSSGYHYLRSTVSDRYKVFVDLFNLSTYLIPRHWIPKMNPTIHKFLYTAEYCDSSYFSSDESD
Experimental: 2) Testing Compounds for TDO Inhibitory Activity in a TDO2 Enzymatic Assay:
Recombinant human TDO comprising amino acids 19-407 with a N-terminal hexahistidine tag expressed in E. coli and purified to homogeneity is incubated at a final concentration of 15 nM in assay buffer consisting of 75 mM phosphate buffer at pH7 supplemented with 100 μM ascorbic acid, 50 U/ml Catalase, 0.01% BSA, and 0.01% Tween 20 (protocol modified from Seegers et al, JBS 2014). Example compounds are serially diluted in DMSO, further diluted in phosphate buffer, and added to the reaction mixture at final concentrations ranging from 10 μM to 0.5 nM. The final DMSO concentration is 0.6%. Following a pre-incubation of 30 minutes at RT, the reaction is started by the addition of L-tryptophan at a final concentration of 200 μM in assay buffer. After 30 minutes of incubation at RT, 3 μL of the reaction mixture are transferred to a 384 deep well plate containing 25 μL of deionized water. 100 μl of 200 nM L-Tryptophan-(indole-d5) in cold 100% methanol are added followed by a 10 minutes centrifugation at 3220×g at 4° C. An additional 75 μL of deionized water are then added followed by a 10 minutes centrifugation at 3220×g at 4° C. The product of the reaction N′-Formylkynurenine (NFK) is quantified by LCMS and normalized to the L-Tryptophan-(indole-d5) signal. Samples with 0.6% DMSO (0% effect) and a TDO/IDO inhibitor (100% effect) are used as control samples to set the parameters for the non-linear regression necessary for the determination of the half-maximal inhibitory concentration (IC50) for each compound. For each compound concentration the percentage of activity compared to 0% and 100% effect is calculated as average±STDEV (each concentration measured in duplicate). IC50 values and curves are generated with XLfit software (IDBS) using Dose-Response One Site model 203 (four parameter logistic curve model). The calculated IC50 values may fluctuate depending on the daily assay performance. Fluctuations of this kind are known to those skilled in the art. When compounds are measured multiple times, mean values are given.

[2] = biological target: T2, IDO1 in SKOV3 cells (Homo sapiens, UniProt P14902); assay: Cell-based IDO inhibitory activity in IFNγ-stimulated SKOV3 cells (NFK + kynurenine by LCMS); conditions: IFNγ 50 ng/ml, 200 uM L-tryptophan, 24 hours
T2 construct: SKOV3 cells (NCI, No. 0503405) which upregulate IDO1 after stimulation with IFNγ; host or cells: SKOV3 cells stimulated with IFNγ
T2 sequence (P14902 whole entry): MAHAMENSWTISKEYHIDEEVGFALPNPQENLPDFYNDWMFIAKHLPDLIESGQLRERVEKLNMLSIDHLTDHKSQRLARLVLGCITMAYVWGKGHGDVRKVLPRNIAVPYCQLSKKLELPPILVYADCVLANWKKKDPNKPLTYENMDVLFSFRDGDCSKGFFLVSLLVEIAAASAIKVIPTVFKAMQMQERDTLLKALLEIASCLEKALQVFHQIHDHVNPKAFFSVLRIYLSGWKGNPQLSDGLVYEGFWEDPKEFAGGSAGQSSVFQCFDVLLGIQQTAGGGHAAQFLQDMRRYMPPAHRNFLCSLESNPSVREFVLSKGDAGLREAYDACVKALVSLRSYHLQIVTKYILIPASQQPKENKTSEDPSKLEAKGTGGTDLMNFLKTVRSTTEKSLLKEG
Excerpt: 3) Testing Compounds for IDO/TDO Inhibitory Activity and Toxicity in Cell-Based Assays
SW48 cells (ATCC, CCL-231) are used to measure compounds for TDO inhibitory activity and are routinely maintained in DMEM high glucose/GlutaMAX™/pyruvate 90% (v/v), FCS 10% (v/v), Penicilin/streptomycin 1% (v/v). SKOV3 cells (NCI, No. 0503405) which upregulate IDO1 after stimulation with IFNγ are used to measure compounds for IDO inhibitory activity. SKOV3 cells are routinely maintained in RPMI 90% (v/v), FCS 10% (v/v), Penicilin/streptomycin 1% (v/v). SW48 or SKOV3 cells are seeded in 384 well plates at a density of 8000 cells in 45 ul per well or 4000 cells in 45 ul per well, respectively. Plates are incubated at 37° C./5% CO2 for 24 hours. On the next day, 10 ul compound in serial dilutions (tested concentration range 10 uM-40 nM) and 200 uM L-tryptophan are added (SKV03 receive in addition IFNγ at a final concentration of 50 ng/ml). After 24 hours of incubation at 37° C./5% CO2, 3 ul of the supernatant per well is transferred to 25 ul H2O per well in a 384 deep well plate and 25 ul of the supernatant per well is transferred to waste. The SKOV3 and SW48 cell plates with 25 ul supernatant per well remaining are used to measure viability (see below). The 384 deep well plate containing 3 ul supernatant and 25 ul H2O per well are further processed for LCMS: After the addition of 100 ul L-tryptophan-(indole-d5) (Sigma 615862) at 200 nM in methanol, the 384 deep well plates are centrifuged for 10 minutes at 3220×g at 4° C., 75 ul H2O is added per well and plates centrifuged again for 10 minutes at 3220×g at 4° C. N-formylkynurenine and kynurenine are quantified by LCMS, normalized to the internal standard L-tryptophan-(indole-d5) and the sum is calculated. Samples with 0.2% DMSO (0% effect) and a TDO/IDO inhibitor (100% effect) are used as control samples to set the parameters for the non-linear regression necessary for the determination of the IC50 for each compound. For each compound concentration the percentage of activity compared to 0% and 100% effect is calculated as average±STDEV (each concentration measured in duplicate). IC50 values and curves are generated with XLfit software (IDBS) using Dose-Response One Site model 203. The calculated IC50 values may fluctuate depending on the daily cellular assay performance. Fluctuations of this kind are known to those skilled in the art. When compounds are measured multiple times, mean values are given.

IC50 [1]	IC50 [2]	Compound
8360 nM	10.2 nM	Cc1c(C(O)c2c(Cl)ccc3cncn23)nnn1-c1ccc(OCCC(C)(C)O)c(Cl)c1 (racemic) [Example 49, rac-4-(2-Chloro-4-{4-[(6-chloro-imidazo[1,5-a]pyridin-5-yl)-hydroxy-methyl]-5-methyl-[1,2,3]triazol-1-yl}-phenoxy)-2-methyl-butan-2-ol]
> 10200 nM	364 nM	Cc1c(C(O)c2c(C3CC3)ncc3cncn23)nnn1-c1ccc(F)cc1F (racemic) [Example 54, rac-(6-Cyclopropyl-imidazo[1,5-a]pyrazin-5-yl)-[1-(2,4-difluoro-phenyl)-5-methyl-1H-[1,2,3]triazol-4-yl]-methanol]
> 10200 nM	333 nM	Cc1c(C(O)c2c(C3CC3)ncc3cncn23)nnn1-c1ccccc1F (racemic) [Example 57, rac-(6-Cyclopropyl-imidazo[1,5-a]pyrazin-5-yl)-(1-(2-fluoro-phenyl)-5-methyl-1H-[1,2,3]triazol-4-yl-methanol]
> 10200 nM	18.1 nM	O[C@@H](c1cn(-c2cc(F)c(OCC3(F)COC3)cc2F)nn1)c1c(C2CC2)ncc2cncn12 [Example 52, (R)-(6-Cyclopropyl-imidazo[1,5-a]pyrazin-5-yl)-{1-[2,5-difluoro-4-(3-fluoro-oxetan-3-ylmethoxy)-phenyl]-1H-[1,2,3]triazol-4-yl}-methanol]
> 10200 nM	27.4 nM	O[C@@H](c1cn(-c2cc(F)c(OCC3COC3)cc2F)nn1)c1c(C2CC2)ncc2cncn12 [Example 53, (R)-(6-Cyclopropyl-imidazo[1,5-a]pyrazin-5-yl)-{1-[2,5-difluoro-4-(oxetan-3-ylmethoxy)-phenyl]-1H-[1,2,3]triazol-4-yl}-methanol]
> 10200 nM	29.3 nM	CC(C)(O)COc1cc(F)c(-n2cc([C@H](O)c3c(C4CC4)ncc4cncn34)nn2)cc1F [Example 56, 1-(4-{4-[(R)-(6-Cyclopropyl-imidazo[1,5-a]pyrazin-5-yl)-hydroxy-methyl]-[1,2,3]triazol-1-yl}-2,5-difluoro-phenoxy)-2-methyl-propan-2-ol]
7040 nM	145 nM	COc1ccc(-n2nnc(C(O)c3c(Cl)ccc4cncn34)c2Cl)cc1 (racemic) [Example 51, rac-(6-Chloro-imidazo[1,5-a]pyridin-5-yl)-[5-chloro-1-(4-methoxy-phenyl)-1H-[1,2,3]triazol-4-yl]-methanol]
8200 nM	5.41 nM	Cc1c(C(O)c2c(Cl)ccc3cncn23)nnn1-c1ccc(OCCC(C)(C)O)c(F)c1 (racemic) [Example 50, rac-4-(4-{4-[(6-Chloro-imidazo[1,5-a]pyridin-5-yl)-hydroxy-methyl]-5-methyl-[1,2,3]triazol-1-yl}-2-fluoro-phenoxy)-2-methyl-butan-2-ol]
> 10200 nM	35 nM	COc1cc(F)c(-n2nnc(C(O)c3c(C4CC4)ncc4cncn34)c2C)cc1F (racemic) [Example 55, rac-(6-Cyclopropyl-imidazo[1,5-a]pyrazin-5-yl)-[1-(2,5-difluoro-4-methoxy-phenyl)-5-methyl-1H-[1,2,3]triazol-4-yl]-methanol]
